One test addresses T1, ERK1 (Homo sapiens, UniProt P27361).
T1 construct: purchased Jubilant Biosys
Kind of test: ERK1 HTRF (biochemical) assay. The conditions noted are these: HTRF. As to the method:
ERK1 and ERK2 HTRF (Biochemical) Assays
These assays employed a homogeneous time resolved fluorescence (HTRF) technique. […] The plate was incubated at room temperature for 60 min with shaking. […] The IC50 values (half maximal inhibitory concentration values) were subsequently determined using a sigmoidal dose-response curve (variable slope) in GraphPad Prism® 5 software.

The next test deals with T2, ERK2 (Homo sapiens, UniProt P28482).
T2 construct: purchased Jubilant Biosys
In words: ERK2 HTRF (biochemical) assay. The conditions noted are these: HTRF. The method in brief:
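Readout was time-resolved FRET between europium anti-phospho-MBP and streptavidin-APC after a 60-min room-temperature kinase step. That step used ERK2 (25 nM in enzyme mix), biotinylated MBP peptide (1 uM) and ATP (24 uM) from the substrate mix, in pH 7.5 Tris buffer.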

T2 sequence (P28482 whole entry): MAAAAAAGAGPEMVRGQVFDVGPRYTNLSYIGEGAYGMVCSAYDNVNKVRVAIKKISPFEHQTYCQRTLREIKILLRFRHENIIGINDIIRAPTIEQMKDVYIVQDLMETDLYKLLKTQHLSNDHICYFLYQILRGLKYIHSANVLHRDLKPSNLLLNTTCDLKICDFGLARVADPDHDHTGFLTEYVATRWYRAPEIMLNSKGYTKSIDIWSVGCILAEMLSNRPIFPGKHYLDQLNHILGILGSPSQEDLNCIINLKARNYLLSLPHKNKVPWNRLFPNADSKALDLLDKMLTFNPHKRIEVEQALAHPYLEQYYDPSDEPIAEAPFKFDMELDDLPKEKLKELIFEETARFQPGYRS
T1 sequence (P27361 whole entry): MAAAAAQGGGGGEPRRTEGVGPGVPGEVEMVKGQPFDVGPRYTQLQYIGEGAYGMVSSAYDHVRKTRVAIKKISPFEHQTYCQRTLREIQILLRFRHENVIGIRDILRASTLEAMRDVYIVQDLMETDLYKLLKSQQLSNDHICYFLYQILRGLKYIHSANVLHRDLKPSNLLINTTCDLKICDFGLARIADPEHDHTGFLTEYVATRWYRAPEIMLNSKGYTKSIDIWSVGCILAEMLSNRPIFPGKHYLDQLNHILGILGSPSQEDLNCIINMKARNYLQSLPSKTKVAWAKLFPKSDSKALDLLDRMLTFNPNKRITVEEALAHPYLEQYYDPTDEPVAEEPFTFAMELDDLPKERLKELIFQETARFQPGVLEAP

Turning to `Cc1cn(-c2nc(Nc3ccc(F)cc3)ncc2C)cc1C(=O)NC(CO)c1ccccc1` (stereo not shown) [Compound 108, 1-(2-((4-fluoro-phenyl)amino)-5-methylpyrimidin-4-yl)-N-(2-hydroxy-1-phenylethyl)-4-methyl-1H-pyrrole-3-carboxamide], the IC50 on ERK1 is under 50 nM; on ERK2, at most 50 nM.
For `CC[C@@H](CO)Nc1cc(-n2ccc(C(=O)NC(CO)c3cccc(Cl)c3)c2)ccn1` (stereo partly drawn) [Compound 109, N-(1-(3-chloro-phenyl)-2-hydroxy-ethyl)-1-(2-(((S)-1-hydroxybutan-2-yl)amino)pyridin-4-yl)-1H-pyrrole-3-carboxamide], the IC50 against ERK1 was under 50 nM; on ERK2, at most 50 nM.
Turning to `Cc1cn(-c2ccnc(Nc3ccc(F)cc3)n2)cc1C(=O)NC(CO)c1cccc(Cl)c1` (stereo not shown) [Compound 110, N-(1-(3-chloro-phenyl)-2-hydroxyethyl)-1-(2-((4-fluorophenyl)-amino)pyrimidin-4-yl)-4-methyl-1H-pyrrole-3-carboxamide], the IC50 against ERK1 is 50 to 100 nM; at ERK2 it was at most 50 nM.
For the molecule `O=C(NC(CO)c1cccc(Cl)c1)c1ccn(-c2ccnc(Nc3ccc(F)cc3Cl)n2)c1` (stereo not shown) [Compound 111, 1-(2-((2-chloro-4-fluorophenyl)amino)pyrimidin-4-yl)-N-(1-(3-chlorophenyl)-2-hydroxyethyl)-1H-pyrrole-3-carboxamide], the IC50 on ERK1 was 50 to 100 nM; on ERK2, at most 50 nM.
Taken in the same sequence, the figures for `O=C(N[C@H](CO)c1cccc(Cl)c1)c1ccn(-c2ccnc(Nc3ccc(F)cc3Cl)n2)c1` [Compound 112, (S)-1-(2-((2-chloro-4-fluorophenyl)-amino)pyrimidin-4-yl)-N-(1-(3-chlorophenyl)-2-hydroxyethyl)-1H-pyrrole-3-carboxamide] were under 50 nM and at most 50 nM.
For `Cc1cnc(Nc2ccc(F)cc2)nc1-n1ccc(C(=O)NC(CO)c2cccc(Cl)c2)c1` (stereo not shown) [Compound 113, N-(1-(3-chloro-phenyl)-2-hydroxy-ethyl)-1-(2-((4-fluorophenyl)amino)-5-methyl-pyrimidin-4-yl)-1H-pyrrole-3-carboxamide], the 50% inhibitory concentration (IC50) was 50 to 100 nM against ERK1 and at most 50 nM against ERK2.
Taken in the same sequence, the figures for `Cc1cnc(Nc2ccc(F)cc2)nc1-n1ccc(C(=O)NC(CO)c2ccccc2)c1` (stereo not shown) [Compound 114, 1-(2-((4-fluoro-phenyl)amino)-5-methylpyrimidin-4-yl)-N-(2-hydroxy-1-phenylethyl)-1H-pyrrole-3-carboxamide] were under 50 nM and at most 50 nM.
For the molecule `Cc1cnc(NC2CC2)nc1-n1ccc(C(=O)NC(CO)c2cccc(Cl)c2)c1` (stereo not shown) [Compound 115, N-(1-(3-chloro-phenyl)-2-hydroxy-ethyl)-1-(2-(cyclopropylamino)-5-methylpyrimidin-4-yl)-1H-pyrrole-3-carboxamide], the IC50 against ERK1 was under 50 nM; on ERK2 it was at most 50 nM.
With `O=C(N[C@H](CO)c1cccc(Cl)c1)c1cn(-c2ccnc(NC3CC3)c2)cn1` [Compound 116, (S)-N-(1-(3-chlorophenyl)-2-hydroxyethyl)-1-(2-(cyclopropylamino)pyridin-4-yl)-1H-imidazole-4-carboxamide], the IC50 on ERK1 is under 50 nM; at ERK2, at most 50 nM.
Taken in the same sequence, the figures for `Cc1cnc(NC(C)c2ccccc2)nc1-n1ccc(C(=O)NC(CO)c2ccccc2)c1` (stereo not shown) [Compound 117, N-(2-hydroxy-1-phenylethyl)-1-(5-methyl-2-((1-phenylethyl)amino)pyrimidin-4-yl)-1H-pyrrole-3-carboxamide] were 100 to 500 nM and 50 to 100 nM.
Turning to `Cc1cnc(Nc2ccc(F)cc2)nc1-n1cnc(C(=O)NC(CO)c2ccccc2)c1` (stereo not shown) [Compound 118, 1-(2-((4-fluoro-phenyl)amino)-5-methylpyrimidin-4-yl)-N-(2-hydroxy-1-phenylethyl)-1H-imidazole-4-carboxamide], the results for the IC50 on ERK1 and on ERK2 were 50 to 100 nM and at most 50 nM, respectively.
Taken in the same sequence, the figures for `COc1cc(Nc2ncc(C)c(-n3ccc(C(=O)NC(CO)c4ccccc4)c3)n2)cc(OC)c1OC` (stereo not shown) [Compound 121, N-(2-hydroxy-1-phenylethyl)-1-(5-methyl-2-((3,4,5-trimethoxyphenyl)amino)pyrimidin-4-yl)-1H-pyrrole-3-carboxamide] were under 50 nM and at most 50 nM.
Taken in the same sequence, the figures for `Cc1cnc(NC2CCOC2)nc1-n1ccc(C(=O)NC(CO)c2cccc(Cl)c2)c1` (stereo not shown) [Compound 123, N-(1-(3-chlorophenyl)-2-hydroxyethyl)-1-(5-methyl-2-((tetrahydrofuran-3-yl)amino)pyrimidin-4-yl)-1H-pyrrole-3-carboxamide] were under 50 nM and at most 50 nM.
Taken in the same sequence, the figures for `O=C(NC(CO)c1cccc(Cl)c1)c1ccn(-c2cc(Nc3ccccc3)ncc2Cl)c1` (stereo not shown) [Compound 124, 1-(5-chloro-2-(phenylamino)pyridin-4-yl)-N-(1-(3-chlorophenyl)-2-hydroxyethyl)-1H-pyrrole-3-carboxamide] were under 50 nM and at most 50 nM.
Turning to `Cc1cnc(Nc2ccc(F)cc2)nc1-n1ccc(C(=O)N[C@H](CO)c2ccc(F)c(Cl)c2)c1` [Compound 125, (S)-N-(1-(3-chloro-4-fluorophenyl)-2-hydroxyethyl)-1-(2-((4-fluorophenyl)-amino)-5-methyl-pyrimidin-4-yl)-1H-pyrrole-3-carboxamide], the IC50 at ERK1 is under 50 nM; against ERK2, at most 50 nM.
Taken in the same sequence, the figures for `COc1cc(Nc2ncc(C)c(-n3ccc(C(=O)N[C@H](CO)c4ccc(F)c(Cl)c4)c3)n2)cc(OC)c1OC` [Compound 126, (S)-N-(1-(3-chloro-4-fluorophenyl)-2-hydroxyethyl)-1-(5-methyl-2-((3,4,5-trimethoxyphenyl)amino)pyrimidin-4-yl)-1H-pyrrole-3-carboxamide] were under 50 nM and at most 50 nM.
With `CCC(COC)Nc1ncc(C)c(-n2ccc(C(=O)NC(CO)c3cccc(Cl)c3)c2)n1` (stereo not shown) [Compound 127, N-(1-(3-chloro-phenyl)-2-hydroxy-ethyl)-1-(2-((1-methoxybutan-2-yl)amino)-5-methylpyrimidin-4-yl)-1H-pyrrole-3-carboxamide], the IC50 at ERK1 was under 50 nM; against ERK2, at most 50 nM.
In the case of `Cc1cnc(NC2CCOC2)nc1-n1ccc(C(=O)NC(CO)c2ccccc2)c1` (stereo not shown) [Compound 128, N-(2-hydroxy-1-phenylethyl)-1-(5-methyl-2-((tetrahydrofuran-3-yl)amino)pyrimidin-4-yl)-1H-pyrrole-3-carboxamide], the IC50 at ERK1 is under 50 nM; against ERK2, at most 50 nM.
On to `COc1cnc(Nc2ccc(F)cc2Cl)nc1-n1ccc(C(=O)NC(CO)c2ccccc2)c1` (stereo not shown) [Compound 129, 1-(2-((2-chloro-4-fluorophenyl)amino)-5-methoxy-pyrimidin-4-yl)-N-(2-hydroxy-1-phenylethyl)-1H-pyrrole-3-carboxamide], for which the IC50 at ERK1 is under 50 nM; at ERK2, at most 50 nM.
Taken in the same sequence, the figures for `CCNc1ncc(C)c(-n2ccc(C(=O)NC(CO)c3ccccc3)c2)n1` (stereo not shown) [Compound 130, 1-(2-(ethylamino)-5-methylpyrimidin-4-yl)-N-(2-hydroxy-1-phenylethyl)-1H-pyrrole-3-carboxamide] were 100 to 500 nM and 100 to 500 nM.
Regarding `Cc1cnc(Nc2ccc3c(c2)OCCO3)nc1-n1ccc(C(=O)NC(CO)c2ccccc2)c1` (stereo not shown) [Compound 131, 1-(2-((2,3-dihydrobenzo[b] [1,4]dioxin-6-yl)-amino)-5-methyl-pyrimidin-4-yl)-N-(2-hydroxy-1-phenylethyl)-1H-pyrrole-3-carboxamide], the IC50 on ERK1 is under 50 nM; against ERK2, at most 50 nM.
Consider `Cc1cnc(Nc2ccc3occc3c2)nc1-n1cnc(C(=O)NC(CO)c2cccc(Cl)c2)c1` (stereo not shown) [Compound 132, 1-(2-(benzofuran-5-ylamino)-5-methylpyrimidin-4-yl)-N-(1-(3-chlorophenyl)-2-hydroxyethyl)-1H-imidazole-4-carboxamide], for which the figures for the IC50 against ERK1 and on ERK2 were under 50 nM and at most 50 nM, respectively.
Taken in the same sequence, the figures for `CC[C@@H](CO)Nc1ncc(C)c(-n2ccc(C(=O)N[C@H](CO)c3ccc(F)c(Cl)c3)c2)n1` [Compound 133, N-((S)-1-(3-chloro-4-fluorophenyl)-2-hydroxyethyl)-1-(2-(((S)-1-hydroxy-butan-2-yl)amino)-5-methylpyrimidin-4-yl)-1H-pyrrole-3-carboxamide] were under 50 nM and at most 50 nM.
As to `CC(=O)NCC(NC(=O)c1ccn(-c2cc(Nc3ccc(F)cc3)ncc2C)c1)c1ccccc1` (stereo not shown) [Compound 135, N-(2-acetamido-1-phenylethyl)-1-(2-((4-fluorophenyl)-amino)-5-methyl-pyridin-4-yl)-1H-pyrrole-3-carboxamide], the IC50 was under 50 nM against ERK1 and at most 50 nM against ERK2.
Taken in the same sequence, the figures for `Cc1cnc(Nc2ccc3c(c2)OC(F)(F)O3)nc1-n1ccc(C(=O)NC(CN)c2cccc(Cl)c2)c1` (stereo not shown) [Compound 136, N-(2-amino-1-(3-chlorophenyl)ethyl)-1-(2-((2,2-difluorobenzo[d][1,3]dioxol-5-yl)amino)-5-methylpyrimidin-4-yl)-1H-pyrrole-3-carboxamide] were 50 to 100 nM and at most 50 nM.
Taken in the same sequence, the figures for `Cc1cnc(Nc2ccc3c(c2)CCO3)nc1-n1ccc(C(=O)NC(CO)c2cccc(Cl)c2)c1` (stereo not shown) [Compound 137, N-(1-(3-chloro-phenyl)-2-hydroxyethyl)-1-(2-((2,3-dihydro-benzofuran-5-yl)-mino)-5-methyl-pyrimidin-4-yl)-1H-pyrrole-3-carboxamide] were under 50 nM and at most 50 nM.
